Laboratory results taken from PMC5447021, “TNF Lectin-Like Domain Restores Epithelial Sodium Channel Function in Frameshift Mutants Associated with Pseudohypoaldosteronism Type 1B” (Frontiers in Immunology, 2017).
“Also recorded” adds a separate entry of the source.

What was measured:
[1] = tested on: αI68fsβγ-ENaC; test: Whole-cell patch clamp, αI68fs + WT βγ; format: cell-based, human
Procedure: (§1) Point mutations of α-, β-, γ- and δ-hENaC and PHA1B frameshift mutations of α-hENaC were prepared with the QuikChange Lightning Site-Directed Mutagenesis Kit (Agilent Technologies, CA, USA). Mutagenic primers were designed individually with the Primer Design Program provided on the producer’s website or for the frameshift mutations the same base changes as reported in patients (see Table 2) were performed. Primers were ordered from Sigma-Aldrich, Vienna, Austria.
(§2) HEK-293 cells were transfected 1 day after cell seeding using X-tremeGENE HP DNA transfection reagent (Roche Diagnostics, Mannheim, Germany) according to the manufacturer’s protocol. A set of WT or mutant αβγ- or δβγ-hENaC, or α-, β-, γ-, or δ-hENaC alone was used, and the ratio of DNA to transfection reagent was 1:3. The expression was highest 48–72 h after transfection.
(§3) Electrophysiological experiments were performed as described in detail by Shabbir et al. ([16]). […] Currents were recorded with the patch clamp method in the whole-cell mode. The chamber contained 1 ml of the bath solution of the following composition (in mM): 145 NaCl, 2.7 KCl, 1.8 CaCl2, 2 MgCl2, 5.5 glucose, and 10 HEPES, adjusted to pH 7.4 with 1 M NaOH solution. Micropipettes were pulled from thin-walled borosilicate glass capillaries (Harvard Apparatus, Holliston, MA, USA) with a DMZ Zeitz Puller to obtain electrode resistances ranging from 2 to 5 MΩ. […]

[2] = tested on: αT169fs (co-expressed with βγ-ENaC); test: Whole-cell patch clamp, αT169fs + WT βγ; format: cell-based, human; conditions: read-out: EC50, solnatide, HEK-293, whole-cell, -100 mV, n = 9
Procedure: as §1, §2, §3

[3] = tested on: αF435fs (co-expressed with βγ-ENaC); test: Whole-cell patch clamp, αF435fs + WT βγ; format: cell-based, human; conditions: read-out: EC50, solnatide, HEK-293, whole-cell, -100 mV, n = 7
Procedure: as §1, §2, §3

[4] = tested on: αY447fs (co-expressed with βγ-ENaC); test: Whole-cell patch clamp, αY447fs + WT βγ; format: cell-based, human; conditions: read-out: EC50, solnatide, HEK-293, whole-cell, -100 mV, n = 7
Procedure: as §1, §2, §3

[5] = tested on: α-ENaC frameshift PHA1B mutants; test: Whole-cell patch clamp, all α-ENaC PHA1B frameshift mutants + WT βγ; format: cell-based, human; conditions: for Restoration of current by solnatide (words): all 10 frameshift mutants, 200 nM solnatide (Figure 4B), n = 3–11
Procedure: as §1, §2
Electrophysiological experiments were performed as described in detail by Shabbir et al. ([16]). […] Currents were recorded with the patch clamp method in the whole-cell mode. The chamber contained 1 ml of the bath solution of the following composition (in mM): 145 NaCl, 2.7 KCl, 1.8 CaCl2, 2 MgCl2, 5.5 glucose, and 10 HEPES, adjusted to pH 7.4 with 1 M NaOH solution. Micropipettes were pulled from thin-walled borosilicate glass capillaries (Harvard Apparatus, Holliston, MA, USA) with a DMZ Zeitz Puller to obtain electrode resistances ranging from 2 to 5 MΩ. The pipette solution contained (in millimolars): 135 potassium methane sulfonate, 10 KCl, 6 NaCl, 1 Mg2ATP, 2 Na3ATP, 10 HEPES, and 0.5 EGTA, adjusted to pH 7.2 with 1 M KOH solution. Chemicals for pipette and bathing solutions were supplied by Sigma-Aldrich (Vienna, Austria). Electrophysiological measurements were carried out with an Axopatch 200B patch clamp amplifier (Axon Instruments, CA, USA). Capacity transients were canceled, and series resistance was compensated. Whole-cell currents were filtered at 5 kHz and sampled at 10 kHz. Data acquisition and storage were processed directly to a PC equipped with pCLAMP 10.2 software (Axon Instruments, CA, USA). […]

[6] = tested on: δD522Xβγ-ENaC; conditions: cited from earlier work
[7] = tested on: V567A/E568A and V567A/E568A/E571A α-ENaC mutants; conditions: cited from earlier work
From the text: Lucas et al. ([31]) identified positions V567, E568, and E571 in the α-subunit as the crucial sites for binding of the lectin-like domain of TNF. They generated alanine replacement mutants in this region of α-ENaC and examined its interaction with the TIP peptide. […] In fact, this applies to all the frameshift mutants examined here.

[8] = tested on: β-ENaC; conditions: HEK-293, 5 and 10 min; cited from earlier work
[9] = tested on: A549 and H441 cells or HEK-293 cells heterologously expressing human ENaC; design: method as in PMID 24077967, PMID 25029038; conditions: cited from earlier work

C[C@@H]1NC(=O)CNC(=O)[C@H](CCC(=O)O)NC(=O)[C@@H]2CCCN2C(=O)[C@H]([C@@H](C)O)NC(=O)[C@H](CCC(=O)O)NC(=O)[C@H](CCCNC(=N)N)NC(=O)[C@H](CCC(N)=O)NC(=O)CNC(=O)[C@@H](N)CSSC[C@@H](C(=O)O)NC(=O)[C@H](Cc2ccc(O)cc2)NC(=O)[C@H](Cc2c[nH]c3ccccc23)NC(=O)[C@@H]2CCCN2C(=O)[C@H](CCCCN)NC(=O)[C@H](C)NC(=O)[C@H](CCC(=O)O)NC1=O [solnatide, L-cysteine, L-cysteinylglycyl-L-glutaminyl-L-arginyl-L-α-glutamyl-L-threonyl-L-prolyl-L-α-glutamylglycyl-L-alanyl-L-α-glutamyl-L-alanyl-L-lysyl-L-prolyl-L-tryptophyl-L-tyrosyl-, cyclic (1→17)-disulfide]
EC50 ([1]; read-out: EC50, solnatide, αI68fs + WT βγ, HEK-293, whole-cell, -100 mV, n = 9): 73.4 ± 13.4 nM
Effect of solnatide on current (words) ([1]; αI68fsβγ-ENaC, HEK-293): induced a current increase in αI68fsβγ-ENaC
EC50 [2]: 58.3 ± 5.2 nM
EC50 [3]: 64.6 ± 8.7 nM
EC50 [4]: 57.2 ± 4.8 nM
Restoration of current by solnatide (words) [5]: up to or even higher than WT control current in absence of solnatide; also recorded: restored the amiloride-sensitive current in all these frameshift mutants to WT or higher levels
Restoration of current by solnatide (words) ([5]; listed as Solnatide): restored function in α-ENaC frameshift mutants to current density levels of wild type ENaC or higher
Concentration at which maximum current activation was reached ([5]; solnatide, frameshift mutants, HEK-293): 200 nM
Effect of solnatide on amiloride-sensitive current [6]: a residual albeit non-significant increase in the amiloride-sensitive current
Current increase, glycosylation sites removed ([6]; glycosylation sites in extracellular loop removed by mutation): small increase was not seen
Binding capacity ([7]; double V567A/E568A and triple V567A/E568A/E571A α-ENaC mutants): reduced binding capacity
Increase in Po ([7]; double and triple α-ENaC TM2 alanine mutants vs WT ENaC): abolition of the increase in Po
Membrane abundance, solnatide [8]: only slight
Na^+ current-enhancing effect after PNGase F [9]: Elimination of the Na^+ current-enhancing effect
